Relative viability data for five cell lines are collected here from the supplement of paper PMC10307832.

Experiment in all cases: relative viability (nuclei count vs DMSO), 5 days (fraction); higher = more cells survive
Compound in the experiment “Alpelisib + Olaparib”: Cc1nc(NC(=O)N2CCC[C@H]2C(N)=O)sc1-c1ccnc(C(C)(C)C(F)(F)F)c1 [Alpelisib] + O=C(c1cc(Cc2n[nH]c(=O)c3ccccc23)ccc1F)N1CCN(C(=O)C2CC2)CC1 [Olaparib] (partner 8 µM)
Put shortly:
(§1)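 For relative viability, nuclei counts in treated wells were divided by those in vehicle wells. Lung cancer cell lines had been pin-tool dosed in 1536-well plates the day after seeding and cultured for 5 days, then fixed and stained in one step (final 0.05% Triton X-100, 1% formaldehyde, 1 ug/ml Hoechst) and imaged at 4×. Doses were one drug alone or a fixed anchor-drug dose plus five library-drug doses (not always all listed) in √10 steps, and values are duplicate-plate medians.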

Compound in the experiment “OSI-027 + Dasatinib”: COc1cccc2cc(-c3nc([C@H]4CC[C@H](C(=O)O)CC4)n4ncnc(N)c34)[nH]c12 [OSI-027] + Cc1nc(Nc2ncc(C(=O)Nc3c(C)cccc3Cl)s2)cc(N2CCN(CCO)CC2)n1 [Dasatinib] (partner 0.075 µM)
Put shortly:
as §1

Compound in the experiment “Alpelisib + Lapatinib”: Cc1nc(NC(=O)N2CCC[C@H]2C(N)=O)sc1-c1ccnc(C(C)(C)C(F)(F)F)c1 [Alpelisib] + CS(=O)(=O)CCNCc1ccc(-c2ccc3ncnc(Nc4ccc(OCc5cccc(F)c5)c(Cl)c4)c3c2)o1 [Lapatinib] (partner 2 µM)
The method, boiled down: as §1

Compound in the experiment “Alpelisib + Crizotinib”: Cc1nc(NC(=O)N2CCC[C@H]2C(N)=O)sc1-c1ccnc(C(C)(C)C(F)(F)F)c1 [Alpelisib] + C[C@@H](Oc1cc(-c2cnn(C3CCNCC3)c2)cnc1N)c1c(Cl)ccc(F)c1Cl [Crizotinib] (partner 1 µM)
The method, boiled down: as §1

Take NCI-H2170: the relative viability in the experiment with Alpelisib + Olaparib (first compound 0.04 µM) worked out at 0.519; with Alpelisib + Olaparib (first compound 0.1265 µM) it was 0.586; with Alpelisib + Olaparib (first compound 0.4 µM), 0.596; with Alpelisib + Olaparib (first compound 1.265 µM), 0.481; with Alpelisib + Olaparib (first compound 4 µM) it was 0.466; with OSI-027 + Dasatinib (first compound 0.01 µM) it was 0.635. In addition, the relative viability came out at 0.506 with OSI-027 + Dasatinib (first compound 0.03162 µM); 0.506 with OSI-027 + Dasatinib (first compound 0.1 µM); 0.56 with OSI-027 + Dasatinib (first compound 0.3162 µM); 0.315 in the experiment with OSI-027 + Dasatinib (first compound 1 µM); 0.269 with Alpelisib + Lapatinib (first compound 0.04 µM); 0.273 with Alpelisib + Lapatinib (first compound 0.1265 µM). Further, the relative viability with Alpelisib + Lapatinib (first compound 0.4 µM) came to 0.239; with Alpelisib + Lapatinib (first compound 1.265 µM) it was 0.248; with Alpelisib + Lapatinib (first compound 4 µM), 0.269; with Alpelisib + Crizotinib (first compound 0.04 µM) it was 1.08; with Alpelisib + Crizotinib (first compound 0.1265 µM), 1.17; with Alpelisib + Crizotinib (first compound 0.4 µM), 1.23. Moreover, the values for the relative viability with Alpelisib + Crizotinib (first compound 1.265 µM) and in the experiment with Alpelisib + Crizotinib (first compound 4 µM) were 0.729 and 0.71, respectively.
Regarding NCI-H2228, the relative viability in the experiment with Alpelisib + Olaparib (first compound 0.04 µM) worked out at 0.889; in the experiment with Alpelisib + Olaparib (first compound 0.1265 µM) it was 0.587; with Alpelisib + Olaparib (first compound 0.4 µM), 0.621; with Alpelisib + Olaparib (first compound 1.265 µM) it was 0.341; with Alpelisib + Olaparib (first compound 4 µM) it was 0.326; with OSI-027 + Dasatinib (first compound 0.01 µM), 0.506. For the same cell line, the relative viability with OSI-027 + Dasatinib (first compound 0.03162 µM) came to 0.467; with OSI-027 + Dasatinib (first compound 0.1 µM), 0.568; in the experiment with OSI-027 + Dasatinib (first compound 0.3162 µM) it was 0.445; in the experiment with OSI-027 + Dasatinib (first compound 1 µM), 0.24; with Alpelisib + Lapatinib (first compound 0.04 µM), 1.02; with Alpelisib + Lapatinib (first compound 0.1265 µM) it was 0.788. Besides, the relative viability with Alpelisib + Lapatinib (first compound 0.4 µM) came to 1.07; in the experiment with Alpelisib + Lapatinib (first compound 1.265 µM), 0.794; in the experiment with Alpelisib + Lapatinib (first compound 4 µM) it was 0.486; with Alpelisib + Crizotinib (first compound 0.04 µM) it was 0.514; with Alpelisib + Crizotinib (first compound 0.1265 µM), 0.402; with Alpelisib + Crizotinib (first compound 0.4 µM), 0.403. In addition, the relative viability with Alpelisib + Crizotinib (first compound 1.265 µM) was 0.303; with Alpelisib + Crizotinib (first compound 4 µM) it was 0.304.
As to NCI-H2347, the relative viability with Alpelisib + Olaparib (first compound 0.04 µM) was 0.632; with Alpelisib + Olaparib (first compound 0.1265 µM) it was 0.61; with Alpelisib + Olaparib (first compound 0.4 µM) it was 0.89; with Alpelisib + Olaparib (first compound 1.265 µM), 0.481; in the experiment with Alpelisib + Olaparib (first compound 4 µM), 0.515; in the experiment with OSI-027 + Dasatinib (first compound 0.01 µM) it was 0.281. For the same cell line, the relative viability with OSI-027 + Dasatinib (first compound 0.03162 µM) stood at 0.379; with OSI-027 + Dasatinib (first compound 0.1 µM) it was 0.205; with OSI-027 + Dasatinib (first compound 0.3162 µM), 0.22; with OSI-027 + Dasatinib (first compound 1 µM) it was 0.268; with Alpelisib + Lapatinib (first compound 0.04 µM) it was 0.991; with Alpelisib + Lapatinib (first compound 0.1265 µM), 0.989. In addition, the relative viability in the experiment with Alpelisib + Lapatinib (first compound 0.4 µM) is 1.33; with Alpelisib + Lapatinib (first compound 1.265 µM), 0.873; with Alpelisib + Lapatinib (first compound 4 µM), 0.83; with Alpelisib + Crizotinib (first compound 0.04 µM), 0.674; with Alpelisib + Crizotinib (first compound 0.1265 µM) it was 0.897; with Alpelisib + Crizotinib (first compound 0.4 µM), 0.859. Moreover, the values for the relative viability with Alpelisib + Crizotinib (first compound 1.265 µM) and in the experiment with Alpelisib + Crizotinib (first compound 4 µM) were 0.603 and 0.61, respectively.
In the case of NCI-H2405, the relative viability worked out at 0.905 in the experiment with Alpelisib + Olaparib (first compound 0.04 µM); 0.864 with Alpelisib + Olaparib (first compound 0.1265 µM); 0.898 with Alpelisib + Olaparib (first compound 0.4 µM); 0.657 in the experiment with Alpelisib + Olaparib (first compound 1.265 µM); 0.71 in the experiment with Alpelisib + Olaparib (first compound 4 µM); 0.2 with OSI-027 + Dasatinib (first compound 0.01 µM). The relative viability with OSI-027 + Dasatinib (first compound 0.03162 µM) came to 0.204; with OSI-027 + Dasatinib (first compound 0.1 µM), 0.185; with OSI-027 + Dasatinib (first compound 0.3162 µM), 0.209; with OSI-027 + Dasatinib (first compound 1 µM), 0.178; in the experiment with Alpelisib + Lapatinib (first compound 0.04 µM), 1.07; in the experiment with Alpelisib + Lapatinib (first compound 0.1265 µM) it was 0.945. The relative viability with Alpelisib + Lapatinib (first compound 0.4 µM) was 1.18; with Alpelisib + Lapatinib (first compound 1.265 µM), 0.783; with Alpelisib + Lapatinib (first compound 4 µM), 0.781; in the experiment with Alpelisib + Crizotinib (first compound 0.04 µM) it was 0.858; with Alpelisib + Crizotinib (first compound 0.1265 µM) it was 0.772; with Alpelisib + Crizotinib (first compound 0.4 µM), 0.889. The relative viability in the experiment with Alpelisib + Crizotinib (first compound 1.265 µM) amounted to 0.662; with Alpelisib + Crizotinib (first compound 4 µM), 0.735.
For NCI-H3122, the relative viability with Alpelisib + Olaparib (first compound 0.04 µM) amounted to 0.644; with Alpelisib + Olaparib (first compound 0.1265 µM) it was 0.657; in the experiment with Alpelisib + Olaparib (first compound 0.4 µM) it was 0.668; with Alpelisib + Olaparib (first compound 1.265 µM), 0.647; with Alpelisib + Olaparib (first compound 4 µM) it was 0.508; in the experiment with OSI-027 + Dasatinib (first compound 0.01 µM), 0.831. The relative viability turned out to be 0.844 in the experiment with OSI-027 + Dasatinib (first compound 0.03162 µM); 0.923 in the experiment with OSI-027 + Dasatinib (first compound 0.1 µM); 0.631 with OSI-027 + Dasatinib (first compound 0.3162 µM); 0.391 in the experiment with OSI-027 + Dasatinib (first compound 1 µM); 1.01 with Alpelisib + Lapatinib (first compound 0.04 µM); 1.02 with Alpelisib + Lapatinib (first compound 0.1265 µM). The relative viability stood at 1.07 with Alpelisib + Lapatinib (first compound 0.4 µM); 1.02 with Alpelisib + Lapatinib (first compound 1.265 µM); 0.919 in the experiment with Alpelisib + Lapatinib (first compound 4 µM); 0.27 in the experiment with Alpelisib + Crizotinib (first compound 0.04 µM); 0.308 with Alpelisib + Crizotinib (first compound 0.1265 µM); 0.227 in the experiment with Alpelisib + Crizotinib (first compound 0.4 µM). Further, the relative viability in the experiment with Alpelisib + Crizotinib (first compound 1.265 µM) was found to be 0.196; with Alpelisib + Crizotinib (first compound 4 µM) it was 0.2.
